Like-named read-outs stand apart in the source and are kept apart here.
How the values were obtained:
[1] = system: tobacco mosaic virus (TMV); assay: Inhibition of local lesion formation by TMV, half-leaf method on kidney bean primary leaves; type: in vivo, tobacco mosaic virus on kidney bean plants (variety: Otebo); conditions: for inhibition at 500 ppm: Tobacco mosaic virus, read-out: Evaluation (rate of inhibition of lesion spot formation)
Source text: (§1) In the experiments one of the compounds of the present invention was formulated as in the above-mentioned Example 3 and after diluting the formulated composition with water to a predetermined concentration.
In this test, the inhibiting action of the compound of the present invention against the formation of local lesion due to the infection of tobacco mosaic virus (TMV) was examined by the half-leaf method using primary leaves of kedny been plants (variety: Otebo). TMV was inoculated on the primary leaf of kedney been plant, and just after the inoculation, the diluted liquid of the compound was painted on the half surface of the leaf and water was painted on the other half surface of the leaf. The concentration of the compounds of the present invention in the liquid was 500 ppm, and the inoculum was adjusted to form about 50 topical lesion spots on the half surface of the leaf painted with water (control). Ten leaves were usually used for the evaluation of one compound, and the rate of inhibition of lesion spot formation was derived from the following formula: [formula]
The thus obtained rates of inhibition were evaluated according to the following criteria: […]

[2] = system: cucumber mosaic virus (CMV); assay: Inhibition of CMV disease transmitted by aphids (Myzus persicae) on cucumber plants; type: in vivo; conditions: CMV via wingless aphids, 500 ppm, sprayed before aphid transmigration, one week after spray
Source text: as §1, with “The followings are the test results of the compounds of the present invention in the plant virus disease-controlling experiments. In” for “In”
The compounds evaluated as A in Test results 2 were further tested as follows:
The cucumber plants growing for two weeks after sowing in greenhouse were sprayed by each liquid containing each compound at a concentration of 500 ppm (variety of cucumber: Kinseisanto). After drying at room temperature about 3 hours, wingless aphids (Myzus persicae, Sulzer) which had been put on the suffered cucumber plant from CMV and shipped the plant sap containing CMV were transmigrated to the sprayed cucumber plants at a rate of 5 insects per plant. On the next day of the transmigration, the insects were killed by spraying dichlorvos in the plants. After one week of the spray of the compound of the present invention, the effectiveness of the compound in inhibiting the occurrence of the sign of disease due to the virus was investigated as the number of plants without the sign of disease per number of plants sprayed. As the control, water was sprayed.

[3] = TMV, kidney bean primary leaves, 500 ppm, painted just after inoculation, half-leaf method

Row | SMILES | inhibition at 500 ppm [1, 3] | Evaluation (number of plants without the sign of disease per number of plants sprayed) [2] | Evaluation (rate of inhibition of lesion spot formation) [1, 3] | other results
1 | CCCCNC[C@H](O)[C@@H](O)[C@H](O)[C@H](O)CO [Compound 3] |  |  |  | inhibition at 500 ppm [1]: 70 to 90%
2 | CCCCCNC[C@H](O)[C@@H](O)[C@H](O)[C@H](O)CO [Compound 5] | 70 to 90% |  |  | 
3 | CCCCCCNC[C@H](O)[C@@H](O)[C@H](O)[C@H](O)CO [Compound 7] | 70 to 90% |  |  | 
4 | CCCCCCCCNC[C@H](O)[C@@H](O)[C@H](O)[C@H](O)CO [Compound 8] | 70 to 90% |  |  | 
5 | CCCCCCCCCCNC[C@H](O)[C@@H](O)[C@H](O)[C@H](O)CO [Compound 10] | 90 to 100% | B (7/10-5/10) |  | 
6 | CCCCCCCCCCCCNC[C@H](O)[C@@H](O)[C@H](O)[C@H](O)CO [Compound 12] | 90 to 100% | A (10/10-8/10) |  | 
7 | CCCCCCCCCCCCNC[C@H](O)[C@@H](O)[C@H](O)[C@H](O)CO [Compound 13] |  | A (10/10-8/10) | A (100-90) | 
8 | CCCCCCCCCCCCNC[C@H](O)[C@@H](O)[C@H](O)[C@H](O)CO [Compound 14] |  | B (7/10-5/10) | A (100-90) | 
9 | CCCCCCCCCCCCNC[C@H](O)[C@@H](O)[C@H](O)[C@H](O)CO [Compound 15] |  | A (10/10-8/10) | A (100-90) | 
10 | CCCCCCCCCCCCNC[C@H](O)[C@@H](O)[C@H](O)[C@H](O)CO [Compound 16] |  | A (10/10-8/10) | A (100-90) | 
11 | CCCCCCCCCCCCNC[C@H](O)[C@@H](O)[C@H](O)[C@H](O)CO [Compound 17] |  |  | B (90-70) | 
12 | CCCCCCCCCCCCCCNC[C@H](O)[C@@H](O)[C@H](O)[C@H](O)CO [Compound 18] | 70 to 90% |  |  | 
13 | CCCCCCCCCCCCCCCNC[C@H](O)[C@@H](O)[C@H](O)[C@H](O)CO [Compound 20] | 70 to 90% |  |  | 
14 | CCCCCCCCCCCCCCCCNC[C@H](O)[C@@H](O)[C@H](O)[C@H](O)CO [Compound 23] | 70 to 90% |  |  | 
15 | CCCCCCCCCCCCCCCCCCNC[C@H](O)[C@@H](O)[C@H](O)[C@H](O)CO [Compound 24, 1-deoxy-1-n-octadecylamino-D-glucitol] | 90 to 100% | A (10/10-8/10) |  | 
16 | CCCCCCCCCCNC[C@@H](O)[C@@H](O)[C@H](O)[C@H](O)CO [Compound 26] | 90 to 100% | B (7/10-5/10) |  | 
17 | CCCCCCCCCCNC[C@@H](O)[C@@H](O)[C@H](O)[C@H](O)CO [Compound 27] |  | B (7/10-5/10) |  | 
18 | CCCCCCCCCCCCNC[C@@H](O)[C@@H](O)[C@H](O)[C@H](O)CO [Compound 28] | 90 to 100% |  |  | 
19 | CCCCCCCCCCCCNC[C@@H](O)[C@@H](O)[C@H](O)[C@H](O)CO.Cl [Compound 29, 1-deoxy-1-n-dodecylamino-D-mannitol hydrochloride] |  | B (7/10-5/10) | A (100-90) | 
20 | CCCCCCCCCCCCNC[C@@H](O)[C@@H](O)[C@H](O)[C@H](O)CO [Compound 30] |  |  | B (90-70) | 
21 | CCCCCCCCCCCCNC[C@@H](O)[C@@H](O)[C@H](O)[C@H](O)CO [Compound 31] |  |  | A (100-90) | 
22 | CCCCCCCCCCCCNC[C@@H](O)[C@@H](O)[C@H](O)[C@H](O)CO [Compound 32] |  |  | A (100-90) | 
23 | CCCCCCCCCCCCCCNC[C@@H](O)[C@@H](O)[C@H](O)[C@H](O)CO [Compound 33] | 70 to 90% |  |  | 
24 | CCCCCCCCCCCCNC[C@H](O)[C@@H](O)[C@@H](O)[C@H](O)CO [Compound 35] | 70 to 90% |  |  | 
25 | CCCCCCCCCCCCNC[C@H](O)[C@@H](O)[C@@H](O)[C@H](O)CO [Compound 36] |  |  | B (90-70) | 

Row | SMILES | inhibition at 500 ppm [1, 3] | Evaluation (number of plants without the sign of disease per number of plants sprayed) [2] | Evaluation (rate of inhibition of lesion spot formation) [1, 3] | other results
26 | CCCCCCCCCCCCNC[C@H](O)[C@@H](O)[C@@H](O)[C@H](O)CO [Compound 37] |  |  | B (90-70) | 
27 | CCCCCCCCCCCCNC[C@H](O)[C@H](O)[C@@H](O)[C@H](C)O [Compound 38] | 70 to 90% |  |  | 
28 | CCCCCCCCCCCCNCC[C@@H](O)[C@H](O)[C@H](O)CO [Compound 41] | 90 to 100% |  |  | 
29 | CCCCCCCCCCCCNCC[C@@H](O)[C@H](O)[C@H](O)CO [Compound 42] |  |  | B (90-70) | 
30 | CCCCCCCCCCNC[C@H](O)[C@H](O)[C@H](O)CO [Compound 43] | 90 to 100% |  |  | 
31 | CCCCCCCCCCCCNC[C@H](O)[C@H](O)[C@H](O)CO [Compound 44] |  |  | B (90-70) | 
32 | CCCCCCCCCCCCNC[C@H](O)[C@H](O)[C@H](O)CO [Compound 45] | 70 to 90% |  |  | 
33 | CCCCCCCCCCCCNC[C@H](O)[C@H](O)[C@H](O)CO [Compound 46] |  |  | A (100-90) | 
34 | CCCCCCCCCCCCNC[C@H](O)[C@H](O)[C@H](O)CO [Compound 47] |  |  | A (100-90) | 
35 | CCCCCCCCCCCCNC[C@H](O)[C@H](O)[C@H](O)CO [Compound 48] |  | A (10/10-8/10) | A (100-90) | 
36 | CCCCCCCCCCCCCCNC[C@H](O)[C@H](O)[C@H](O)CO [Compound 49] | 90 to 100% | A (10/10-8/10) |  | 
37 | CCCCCCCCCCNC[C@H](O)[C@@H](O)[C@H](O)CO [Compound 50] | 70 to 90% |  |  | 
38 | CCCCCCCCCCNC[C@H](O)[C@@H](O)[C@H](O)CO [Compound 51] |  |  | A (100-90) | 
39 | CCCCCCCCCCCCNC[C@H](O)[C@@H](O)[C@H](O)CO [Compound 52] | 90 to 100% | A (10/10-8/10) |  | 
40 | CCCCCCCCCCCCCCNC[C@H](O)[C@@H](O)[C@H](O)CO [Compound 53] | 90 to 100% | A (10/10-8/10) |  | 
41 | CCCCCCCCCCCCCCNC[C@H](O)[C@@H](O)[C@H](O)CO [Compound 54] |  |  | A (100-90) | 
42 | CCCCCCCCCCCCNCC[C@H](O)[C@H](O)CO [Compound 55] | 90 to 100% | A (10/10-8/10) |  | 
43 | CCCCCCCCCCCCCCCCCCNC[C@H](O)[C@@H](O)[C@H](O[C@H]1O[C@H](CO)[C@@H](O)[C@H](O)[C@H]1O)[C@H](O)CO [Compound 56] | 90 to 100% |  |  | 
44 | CCCCCCCCCCCCCCCCCCNC[C@H](O)[C@@H](O)[C@H](O[C@H]1O[C@H](CO)[C@@H](O)[C@H](O)[C@H]1O)[C@H](O)CO [Compound 57] |  |  | B (90-70) | 
45 | CCCCCCCCCCCCNC[C@H](O)[C@@H](O)[C@H](O[C@@H]1O[C@H](CO)[C@H](O)[C@H](O)[C@H]1O)[C@H](O)CO [Compound 58] | 90 to 100% | B (7/10-5/10) |  | 
46 | CCCCCCCCCCCCCCCCCCNC[C@H](O)[C@@H](O)[C@H](O[C@@H]1O[C@H](CO)[C@H](O)[C@H](O)[C@H]1O)[C@H](O)CO [Compound 59] | 90 to 100% |  |  | 
47 | CCCCCCCCCCCCCCCCCCNC[C@H](O)[C@@H](O)[C@H](O[C@@H]1O[C@H](CO)[C@H](O)[C@H](O)[C@H]1O)[C@H](O)CO [Compound 60] |  |  | B (90-70) | 
48 | CCCCCCCCCCCCNC[C@H](O)[C@@H](O)[C@H](O[C@@H]1O[C@H](CO)[C@@H](O)[C@H](O)[C@H]1O)[C@H](O)CO [Compound 61] | 90 to 100% | B (7/10-5/10) |  | 
49 | CCCCCCCCCCCCCCCCCCNC[C@H](O)[C@@H](O)[C@H](O[C@@H]1O[C@H](CO)[C@@H](O)[C@H](O)[C@H]1O)[C@H](O)CO [Compound 62] | 70 to 90% |  |  | 
50 | CCCCCCCCCCCCCCCCCCNC[C@H](O)[C@@H](O)[C@H](O[C@@H]1O[C@H](CO)[C@@H](O)[C@H](O)[C@H]1O)[C@H](O)CO [Compound 63] |  |  | B (90-70) | 

From US4269857A, “Control of plant-virus diseases” (Kureha Kagaku Kogyo Kabushiki Kaisha, priority 1978, dated 1981)
